Source: PubChem BioAssay (NCI)
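Growth conditions: 96-well plates. Treatment: test compound, 48 hours, 5 concentrations. Analysis: linear interpolation between bracketing concentrations; unreached endpoints set to highest concentration. Abbreviation: GI50, concentration required for 50% inhibition of growth. Definition used: TGI = concentration required for complete inhibition of growth.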

Experiments:
Experiment in all cases: NCI tumour cell line growth inhibition, 48 h
[1] = system: MDA-MB-435
[2] = system: DU-145 prostate
[3] = system: RXF 393 renal
[4] = system: OVCAR-5 ovarian
[5] = system: ACHN renal
[6] = system: SK-MEL-5 melanoma
[7] = system: SK-OV-3 ovarian
[8] = system: K-562 leukemia
[9] = system: HT29 colon
[10] = system: NCI/ADR-RES ovarian
[11] = system: HCC-2998 colon
[12] = system: SNB-19 CNS
[13] = system: SW-620 colon
[14] = system: PC-3 prostate
[15] = system: SR leukemia
[16] = system: A549 NSCLC
[17] = system: UACC-62 melanoma
[18] = system: BT-549 breast
[19] = system: HL-60(TB) leukemia
[20] = system: 786-0 renal
[21] = system: M14 melanoma
[22] = system: RPMI-8226 leukemia
[23] = system: CAKI-1 renal
[24] = system: EKVX NSCLC
[25] = system: SNB-75 CNS
[26] = system: NCI-H522 lung
[27] = system: SF-539 CNS
[28] = system: HCT-15 colon
[29] = system: MOLT-4 leukemia
[30] = system: NCI-H460 lung
[31] = system: LOX IMVI melanoma
[32] = system: SF-268 CNS
[33] = system: HOP-92 NSCLC
[34] = system: A498 renal
[35] = system: SK-MEL-28 melanoma
[36] = system: KM12 colon
[37] = system: MALME-3M melanoma
[38] = system: OVCAR-8 ovarian
[39] = system: HS 578T breast
[40] = system: T-47D breast
[41] = system: TK-10 renal
[42] = system: UACC-257 melanoma
[43] = system: UO-31 renal
[44] = system: U251 CNS
[45] = system: SN12C renal
[46] = system: COLO 205 colon
[47] = system: SK-MEL-2 melanoma
[48] = system: MDA-MB-231 breast
[49] = system: HCT-116 colon
[50] = system: OVCAR-4 ovarian
[51] = system: IGROV1 ovarian
[52] = system: NCI-H226 lung
[53] = system: SF-295 CNS
[54] = system: MCF7 breast
[55] = system: CCRF-CEM leukemia
[56] = system: HOP-62 NSCLC

Question: Which results are given for CCNC(=O)Oc1ccc(/C(=C(/C)c2ccc(Cl)cc2)c2ccc(OCCN3CCCCCC3)cc2)cc1?
Answer: GI50 [1]: 1.77 µM; TGI [1]: 3.24 µM; GI50 [2]: 2.29 µM; TGI [2]: 5.37 µM; GI50 [3]: 1.46 µM; TGI [3]: 2.93 µM; GI50 [4]: 1.99 µM; TGI [4]: 4.38 µM; GI50 [5]: 1.75 µM; TGI [5]: 3.2 µM; GI50 [6]: 1.68 µM; TGI [6]: 3.05 µM; GI50 [7]: 1.87 µM; TGI [7]: 3.7 µM; GI50 [8]: 1.39 µM; TGI [8]: 3.95 µM; GI50 [9]: 1.7 µM; TGI [9]: 3.27 µM; GI50 [10]: 1.84 µM; TGI [10]: 3.75 µM; GI50 [11]: 1.72 µM; TGI [11]: 3.16 µM; GI50 [12]: 2.5 µM; TGI [12]: 6.88 µM; GI50 [13]: 1.71 µM; TGI [13]: 3.22 µM; GI50 [14]: 1.78 µM; TGI [14]: 3.53 µM; GI50 [15]: 1.35 µM; TGI [15]: 4.91 µM; GI50 [16]: 1.7 µM; TGI [16]: 3.27 µM; GI50 [17]: 1.79 µM; TGI [17]: 3.28 µM; GI50 [18]: 1.74 µM; TGI [18]: 3.14 µM; GI50 [19]: 1.82 µM; TGI [19]: 4.45 µM; GI50 [20]: 1.61 µM; TGI [20]: 3.02 µM; GI50 [21]: 1.7 µM; TGI [21]: 3.13 µM; GI50 [22]: 1.8 µM; TGI [22]: 3.93 µM; GI50 [23]: 1.64 µM; TGI [23]: 3.09 µM; GI50 [24]: 1.91 µM; TGI [24]: 4.77 µM; GI50 [25]: 1.99 µM; TGI [25]: 4.02 µM; GI50 [26]: 1.78 µM; TGI [26]: 3.46 µM; GI50 [27]: 1.72 µM; TGI [27]: 3.14 µM; GI50 [28]: 1.5 µM; TGI [28]: 2.91 µM; GI50 [29]: 2.1 µM; TGI [29]: 6.06 µM; GI50 [30]: 1.75 µM; TGI [30]: 3.24 µM; GI50 [31]: 1.69 µM; TGI [31]: 3.12 µM; GI50 [32]: 2.2 µM; TGI [32]: 5.54 µM; GI50 [33]: 1.41 µM; TGI [33]: 2.86 µM; GI50 [34]: 1.75 µM; TGI [34]: 3.78 µM; GI50 [35]: 1.74 µM; TGI [35]: 3.18 µM; GI50 [36]: 2.63 µM; TGI [36]: 6.8 µM; GI50 [37]: 1.78 µM; TGI [37]: 3.42 µM; GI50 [38]: 1.78 µM; TGI [38]: 3.4 µM; GI50 [39]: 1.95 µM; TGI [39]: 4.26 µM; GI50 [40]: 1.39 µM; TGI [40]: 4.19 µM; GI50 [41]: 2.27 µM; TGI [41]: 6.75 µM; GI50 [42]: 1.71 µM; TGI [42]: 3.3 µM; GI50 [43]: 1.44 µM; TGI [43]: 2.79 µM; GI50 [44]: 1.49 µM; TGI [44]: 2.86 µM; GI50 [45]: 1.67 µM; TGI [45]: 3.18 µM; GI50 [46]: 1.74 µM; TGI [46]: 3.18 µM; GI50 [47]: 1.77 µM; TGI [47]: 3.33 µM; GI50 [48]: 1.84 µM; TGI [48]: 3.48 µM; GI50 [49]: 1.62 µM; TGI [49]: 3 µM; GI50 [50]: 1.96 µM; TGI [50]: 4.55 µM; GI50 [51]: 1.8 µM; TGI [51]: 3.41 µM; GI50 [52]: 2.61 µM; TGI [52]: 8.2 µM; GI50 [53]: 1.6 µM; TGI [53]: 2.97 µM; GI50 [54]: 0.404 µM; TGI [54]: 2.32 µM; GI50 [55]: 1.64 µM; TGI [55]: 9.81 µM; GI50 [56]: 1.55 µM; TGI [56]: 3 µM
